Source: US6346543B1, “Use of a taxoid to treat abnormal cell proliferation in the brain” (priority 1998, dated 2002)
Where “and” joins values, the source holds several entries; their conditions need not be identical. Equal entries are not always repeated.

Test system: intracranially implanted human glioblastoma SF-295
Assay: Antitumor activity against intracranially implanted SF-295 glioblastoma in NCr-nu mice (RP-38)
Assay type: in vivo
Settings: for DAYS OF DEATH: individual animals
From the text: Four studies were initiated to evaluate the response of U251 and SF-295 glioblastomas to treatment with product (Ia). In the two studies, U251 and SF-295 glioblastomas were initiated from intracranially implanted cells at a volume of 10^6 cells per mouse. The treatment schedule of the intracranially implanted U251 glioblastoma cells was iv, once daily, every sixth day for three treatments (q6d×3), beginning on day four post-implant. The treatment schedule of the intracranially implanted SF-295 glioblastoma cells was iv, once daily, every fourth day for three treatments (q4d×3), beginning on day two post-implant. For the intracranially implanted studies, the compounds were evaluated based on their ability to increase the life span of the animals. The positive control used for both of these tumor models was nitrosourea.
In these experiments, general DCTD, NCI techniques and procedures for in vivo efficacy studies were modified for special application (In Vivo Cancer Models, NIH Publication No. 84-2635, 1984). These studies were conducted in approved facilities (AAALAC Registration No. 000643, AALAS Membership No. 840723001, USDA Registration No. 64-R-001, OPPR, PHS, NIH, AWA, Assurance No. A3046-01). These facilities are ISO 9001 certified. The oversight committee was the Southern Research Institutional Animal Care and Use Committee; the protocol used was IACUC No. 96-8-50.
Product (Ia) was prepared in 5% ethanol, 5% tween 80, 90% D5W
Nitrosourea was prepared in 2% ethanol, 98% physiological saline.
Product (Ia) was administered in 0.4 ml/mouse based on a total body weight average.
Nitrosourea was administered 0.1 ml/10 g of body weight.
Any intracranially implanted animal that appeared to be moribund was euthanized for humane purposes. Since efficacy studies fall within this category of basic research, experiment termination was based on resultants that were determined to be optimal.
Six to eight week old athymic NCr-nu female mice were used for the intracranially implanted U251 trials. Six to eight week old athymic NCr-nu male mice were used for the intracranially implanted SF-295 trials.
As previously mentioned, this experiment was designed to evaluate the activity of product (Ia) against intracranially U251 and SF-295 glioblastomas in athymic MCr-nu mice. The dosages for product (Ia) were 30, 20 and 13.4 mg/kg/dose. For the two intracranially implanted experiments, cells were prepared at a concentration of 3.33×10^7 cells per ml of media and injected at a volume of 0.03 ml per mouse. The cells were injected into the cerebrum to the right of the midline with a 25 gauge, ⅜ inch, stainless steel needle. Cultured cells were used for the U251 experiment (RP-36). The treatment schedule was q6d×3, iv, beginning on day four, post-implant. A tumor brei, made from solid tumor, was used for the SF-295 experiment (RP-38). The treatment schedule was q4d×3, iv, beginning on day two, post-implant. Nitrosourea was given in each experiment for comparative purposes because of its known activity against CNS tumors. The dosages were 27, 18 and 12 mg/kg/dose and the treatment schedule was the same as the treatment schedule for product (Ia) in each experiment.

[1] = 13.4 mg/kg/dose IV Q4D×3(2), listed as product (Ia)

With `CO[C@H]1C(=O)[C@]2(C)[C@@H](OC)C[C@H]3OC[C@@]3(OC(C)=O)[C@H]2[C@H](OC(=O)c2ccccc2)[C@]2(O)C[C@H](OC(=O)[C@H](O)[C@@H](NC(=O)OC(C)(C)C)c3ccccc3)C(C)=C1C2(C)C` [Product (Ia), 4α-acetoxy-2α-benzoyloxy-5β, 20-epoxy-1β-hydroxy-7β, 10β-dimethoxy-9-oxo-11-taxen-13α-yl (2R,3S)-3 tert-butoxycarbonylamino-2-hydroxy-3-phenylpropionate] the “68 DAY SURV./TOTAL” value (13.4 mg/kg/dose IV Q4D×3(2)) was 1/10, the “% ILS” value (13.4 mg/kg/dose IV Q4D×3(2)) was “+81%” and the “MEDIAN DAY OF DEATH” value (13.4 mg/kg/dose IV Q4D×3(2)) was 29.0 days. The “MEAN ANIMAL WEIGHT” value (13.4 mg/kg/dose IV Q4D×3(2), day 2) was 25 GRAMS, the “MEAN ANIMAL WEIGHT” value (13.4 mg/kg/dose IV Q4D×3(2), day 5) was 24 GRAMS and the “MEAN ANIMAL WEIGHT” value (13.4 mg/kg/dose IV Q4D×3(2), day 8) was 23 GRAMS. For the same compound, the “MEAN ANIMAL WEIGHT” value (13.4 mg/kg/dose IV Q4D×3(2), day 13) was 22 GRAMS, the “MEAN ANIMAL WEIGHT” value (13.4 mg/kg/dose IV Q4D×3(2), day 15) was 20 GRAMS and the “MEAN ANIMAL WEIGHT” value (13.4 mg/kg/dose IV Q4D×3(2), day 19) was 21 GRAMS. For the same compound, the “MEAN ANIMAL WEIGHT” value (13.4 mg/kg/dose IV Q4D×3(2), day 22) was 22 GRAMS, the “MEAN ANIMAL WEIGHT” value (13.4 mg/kg/dose IV Q4D×3(2), day 26) was 21 GRAMS and the “MEAN ANIMAL WEIGHT” value (13.4 mg/kg/dose IV Q4D×3(2), day 29) was 22 GRAMS. For the same compound, the “MEAN ANIMAL WEIGHT” value (13.4 mg/kg/dose IV Q4D×3(2), day 33) was 22 GRAMS, the “MEAN ANIMAL WEIGHT” value (13.4 mg/kg/dose IV Q4D×3(2), day 37) was 26 GRAMS and the “MEAN ANIMAL WEIGHT” value (13.4 mg/kg/dose IV Q4D×3(2), day 40) was 22 GRAMS. For the same compound, the “MEAN ANIMAL WEIGHT” value (13.4 mg/kg/dose IV Q4D×3(2), day 43) was 27 GRAMS, the “DAYS OF DEATH” value (13.4 mg/kg/dose IV Q4D×3(2)) was 34 day and 41 day and 25 day (2×) and 29 day (3×) and 30 day and 32 day and the “68 DAY SURV./TOTAL” value [1] was “one 68-day survivor out of ten animals”. For the same compound, the “% ILS” value [1] was 81%, the “mean weight loss through the treatment period” value (20 mg/kg dose iv q4d×3) was 6 g and the “68 DAY SURV./TOTAL” value (20.0 mg/kg/dose IV Q4D×3(2)) was 0/10. For the same compound, the “% ILS” value (20.0 mg/kg/dose IV Q4D×3(2)) was “+94%”, the “MEDIAN DAY OF DEATH” value (20.0 mg/kg/dose IV Q4D×3(2)) was 31.0 days and the “MEAN ANIMAL WEIGHT” value (20.0 mg/kg/dose IV Q4D×3(2), day 2) was 25 GRAMS. For the same compound, the “MEAN ANIMAL WEIGHT” value (20.0 mg/kg/dose IV Q4D×3(2), day 5) was 24 GRAMS, the “MEAN ANIMAL WEIGHT” value (20.0 mg/kg/dose IV Q4D×3(2), day 8) was 21 GRAMS and the “MEAN ANIMAL WEIGHT” value (20.0 mg/kg/dose IV Q4D×3(2), day 13) was 19 GRAMS. For the same compound, the “MEAN ANIMAL WEIGHT” value (20.0 mg/kg/dose IV Q4D×3(2), day 15) was 18 GRAMS, the “MEAN ANIMAL WEIGHT” value (20.0 mg/kg/dose IV Q4D×3(2), day 19) was 19 GRAMS and the “MEAN ANIMAL WEIGHT” value (20.0 mg/kg/dose IV Q4D×3(2), day 22) was 21 GRAMS. The “MEAN ANIMAL WEIGHT” value (20.0 mg/kg/dose IV Q4D×3(2), day 26) was 22 GRAMS, the “MEAN ANIMAL WEIGHT” value (20.0 mg/kg/dose IV Q4D×3(2), day 29) was 19 GRAMS and the “MEAN ANIMAL WEIGHT” value (20.0 mg/kg/dose IV Q4D×3(2), day 33) was 23 GRAMS. For the same compound, the “MEAN ANIMAL WEIGHT” value (20.0 mg/kg/dose IV Q4D×3(2), day 37) was 29 GRAMS, the “MEAN ANIMAL WEIGHT” value (20.0 mg/kg/dose IV Q4D×3(2), day 40) was 29 GRAMS and the “MEAN ANIMAL WEIGHT” value (20.0 mg/kg/dose IV Q4D×3(2), day 43) was 29 GRAMS. For the same compound, the “DAYS OF DEATH” value (20.0 mg/kg/dose IV Q4D×3(2)) was 33 day (2×) and 37 day and 54 day and 13 day (2×) and 16 day and 31 day (3×), the “% ILS” value (20.0 mg/kg/dose IV Q4D×3(2), listed as product (Ia)) was 94% and the “mean weight loss through the treatment period” value (30 mg/kg dose iv q4d×3) was 7 g. For the same compound, the “68 DAY SURV./TOTAL” value (30.0 mg/kg/dose IV Q4D×3(2)) was 0/10, the “% ILS” value (30.0 mg/kg/dose IV Q4D×3(2)) was −9% and the “MEDIAN DAY OF DEATH” value (30.0 mg/kg/dose IV Q4D×3(2)) was 14.5 days. For the same compound, the “MEAN ANIMAL WEIGHT” value (30.0 mg/kg/dose IV Q4D×3(2), day 2) was 25 GRAMS, the “MEAN ANIMAL WEIGHT” value (30.0 mg/kg/dose IV Q4D×3(2), day 5) was 23 GRAMS and the “MEAN ANIMAL WEIGHT” value (30.0 mg/kg/dose IV Q4D×3(2), day 8) was 18 GRAMS. For the same compound, the “MEAN ANIMAL WEIGHT” value (30.0 mg/kg/dose IV Q4D×3(2), day 13) was 18 GRAMS, the “MEAN ANIMAL WEIGHT” value (30.0 mg/kg/dose IV Q4D×3(2), day 15) was 19 GRAMS and the “MEAN ANIMAL WEIGHT” value (30.0 mg/kg/dose IV Q4D×3(2), day 19) was 19 GRAMS. The “MEAN ANIMAL WEIGHT” value (30.0 mg/kg/dose IV Q4D×3(2), day 22) was 21 GRAMS, the “MEAN ANIMAL WEIGHT” value (30.0 mg/kg/dose IV Q4D×3(2), day 26) was 21 GRAMS and the “MEAN ANIMAL WEIGHT” value (30.0 mg/kg/dose IV Q4D×3(2), day 29) was 19 GRAMS. The “MEAN ANIMAL WEIGHT” value (30.0 mg/kg/dose IV Q4D×3(2), day 33) was 20 GRAMS, the “MEAN ANIMAL WEIGHT” value (30.0 mg/kg/dose IV Q4D×3(2), day 37) was 18 GRAMS and the “MEAN ANIMAL WEIGHT” value (30.0 mg/kg/dose IV Q4D×3(2), day 40) was 21 GRAMS. For the same compound, the “MEAN ANIMAL WEIGHT” value (30.0 mg/kg/dose IV Q4D×3(2), day 43) was 17 GRAMS, the “DAYS OF DEATH” value (30.0 mg/kg/dose IV Q4D×3(2)) was 40 day and 41 day and 47 day and 11 day and 13 day (2×) and 14 day (2×) and 15 day and 30 day and the “activity against intracranially implanted SF-295 glioblastoma” value (iv q4d×3) was “quite active”. It also gave an MTD (iv q4d×3, SF-295 experiment RP-38) of 13.4 mg/kg/dose.
